The results in this text go back to patent US20080275049A1, “Methods and Compositions for Upregulation of GATA Activity” (REDDY US THERAPEUTICS, INC., priority 2007, published 2008).

Test [1] deals with RCT gene (apolipoprotein E, SRB1 and LCAT). Description: RCT gene expression in pancreatic beta cells. It is filed as cell-based. As to conditions: 25 uM, FIG. 7. On the procedure: Pancreatic beta cells were incubated with compound A (25 uM). Following treatment total RNA was isolated and RCT gene (apolipoprotein E, SRB1 and LCAT) expression was determined.
A further test has as its system Pancreatic beta cells. As to the kind of experiment: Glucose stimulated insulin secretion in pancreatic beta cells. It is filed as cell-based. As to conditions: 25 uM, FIG. 8. On the procedure:
Pancreatic beta cells were incubated with compound A (25 uM). Following treatment glucose stimulated insulin secretion was determined.

For another test, the system named is Ob/ob mice. Description: Plasma glucose in ob/ob mice (insulin resistance and diabetes model). It is filed as in vivo. Particulars: 2 and 4 weeks of treatment, FIG. 9. On the procedure: Glucose Measurements: Glucose levels were measured at the end of the studies using commercially available kits. Ob/ob mice were treated with control vehicle or vehicle containing Compound A (GATA activator) or vehicle containing pioglitazone (a known antidiabetic drug).

Another test deals with GATA1. As to the kind of experiment: GATA knock-down (siRNA), inducible RCT gene expression. It is filed as cell-based, human. Particulars: normal vs GATA-knockdown (siRNA) HepG2 cells; FIG. 2. As to the method:
GATA knock-down: HepG2 cells were grown in T-75 flasks prior to study. Transfection of GATA1 specific siRNA in 24-well plates was performed according to the manufacturer's instructions. After 48 hours, RNA was isolated and RT-PCR was performed to examine changes in GATA1 and RCT message levels all normalized to actin. In some experiments, after 48 hours post transfection, media was removed and normal growth media+one of Compounds A-E or DMSO control was added to the wells. RNA isolation and RT-PCR was then performed as stated above.
To determine the role of GATA on inducible RCT gene expression, molecular approaches were used to reduce GATA expression. GATA expression was reduced by siRNA gene silencing. In this test, a candidate compound (Compound A), known for its ability to function as a GATA inducer, was added to both normal and GATA-knockdown cells as described above.

In another test the test system is cholesterol fed rat. Description: HDL in cholesterol fed rat model. It is filed as in vivo. As to conditions: FIG. 5. As to the method: Lipid Measurements: Lipid levels were measured at the end of the studies using commercially available kits.
Atherosclerosis is associated with dyslipidemia (increased LDL and low HDL).

Another test deals with ApoE −/− mice. Description: Lipid content of aortas in ApoE −/− fat fed mice. It is filed as in vivo. Particulars: oral 50 mg/kg/day for 7 days, oil-red O staining, FIG. 6. On the procedure:
Lipid Content: 8 week old ApoE −/− mice were fed a high fat diet for 2 months and then placed on normal chow. The mice were then orally dosed for 7 days with either CMC-tween (control) or Compound C at 50 mg/kg/day. At the end of the study, the aorta was dissected out, fixed in the O.C.T., sections were prepared, stained with oil-red O, and mounted under cover slips. The oil-red O staining was analyzed using quantitation software and reported as lipid content per lesion area.
Atherosclerosis is also associated with high levels of lipid content in aortas. Compound C was administered to mice according to the method described above and according to conventional animal testing protocol. The lipid content of the aortas was measured.

In another test the test system is GATA. As to the kind of experiment: GATA luciferase reporter assay (GATA activity). It is filed as cell-based, human. As to conditions: HepG2 cells transfected with GATA luciferase construct, treated overnight; FIG. 3. On the procedure: GATA activity: HepG2 cells were grown in T-75 flasks prior to study. 24-well plates were seeded in normal medium without antibiotics to yield ˜50% confluency. The following day, cells were transfected according to the manufacturer's protocol and allowed to incubate overnight. The next day, the media was replaced and cells were treated with vehicle (DMSO) or one of Compounds A-E overnight. Cells were lysed by adding lysis buffer and assayed for luciferase activity.
An in vitro high-throughput assay based on luciferase activity to screen for and identify agents that upregulate GATA activity was developed. HepG2 cells were grown in T-75 flasks prior to study. 24-well plates were seeded in normal medium without antibiotics to yield ˜50% confluency. The following day, cells were transfected (Roche, FuGENE 6 transfection reagent, cat#11815091001) with a GATA luciferase construct (Panomics, cat#LR0027) according to the manufacturer's protocol and allowed to incubate overnight. The next day, the media was replaced and cells were treated with vehicle (DMSO) or GATA inducer candidate compounds (Compounds A-E) overnight. Cells were lysed by adding lysis buffer (Promega, cat#E1500) and assayed for luciferase activity (Perkin Elmer Envision 2101 Multi-Label Reader).
(In general: In a reporter assay the amount or activity of a reporter protein is the signal.)

The next test deals with RCT genes. As to the kind of experiment: Real time quantitative PCR screen for RCT gene induction. It is filed as cell-based, human. Particulars: cells treated, total RNA, FIG. 4. As to the method: PT-PCR Screen: Human liver cells (HepG2) were grown in T-75 flasks prior to study. 96-well plates were seeded, and the following day, cells were washed with PBS and treated with serum free media for 24 hours. The next day, cells were treated with vehicle (DMSO) or with one of Compounds A-E overnight. RNA was isolated and RT-PCR was performed to examine changes in RCT gene message levels normalized to actin.
An in vitro high-throughput assay based on real time quantitative PCR was developed to screen for and identify agents that simultaneously upregulate RCT genes. Cells were treated with pharmaceutical agents, some of which are GATA inducers as described above. Total RNA was isolated and used in the real time assay.

On to `CC(=O)c1ccc(Nc2nc(-c3ccccc3)cc(N3CCC(O)CC3)n2)cc1` [Compound A], for which the “expression of RCT genes (apolipoprotein E, SRB1 and LCAT)” value in test [1] is given as “increased expression of RCT genes”. Further, the “glucose stimulated insulin secretion” value in the test with Pancreatic beta cells is given as “increased secretion of insulin”. In addition, the plasma glucose result in the test on Ob/ob mice was “significantly lower levels of plasma glucose”. In the test on GATA1, the “ability to induce RCT gene expression after GATA knock-down” value is reported as “blunting of Compound A's ability to induce RCT gene expression”. In addition, the HDL result with cholesterol fed rat is “significantly increased HDL”.

Consider `CS(=O)(=O)c1ccc(Nc2nc(-c3ccccc3)cc(N3CCC(O)CC3)n2)cc1` [Compound C], for which the “lipid content in aortas” value in the test on ApoE −/− mice was “significantly lowered lipid content”.

Consider `CCN1CCCC1CNc1nc(Nc2ccc(OC)c(F)c2)nc(N2CCN(CC(=O)N3CCCC3)CC2)n1` (stereo not shown) [D], for which the “GATA activity (luciferase activity)” value in the test with GATA was “not shown to induce GATA activity”. Moreover, in the test on RCT genes, the RCT gene expression result is given as “did not induce RCT gene induction”.

In the case of `COc1ccc(Nc2nc(NC3CCCCCC3)nc(N(C)C3CCN(C)CC3)n2)cc1F` [E], the “GATA activity (luciferase activity)” value in the test on GATA was “not shown to induce GATA activity”. The RCT gene expression entry with RCT genes is on record as “did not induce RCT gene induction”.
